Reference: patent US20080287435A1, “Active Ingredient Combinations Having Insecticide and Acaricide Properties” (Bayer CropScience AG, priority 2005, published 2008)

Legend:
[1] = test system: Myzus persicae; experiment: Myzus persicae test (cabbage leaf dip); assay type: in vivo; details: concentration 20 ppm; peach aphid on cabbage leaves (Brassica oleracea), dipped
Procedure: To produce a suitable preparation of active compound, one part by weight of active compound is mixed with the stated amounts of solvent and emulsifier, and the concentrate is diluted with emulsifier-containing water to the desired concentration.
Cabbage leaves (Brassica oleracea) which are heavily infested by the peach aphid (Myzus persicae) are treated by being dipped into the preparation of active compound of the desired concentration.
After the desired period of time, the kill in % is determined. 100% means that all aphids have been killed; 0% means that none of the aphids have been killed.

[2] = test system: Plutella xylostella; experiment: Plutella xylostella test (cabbage leaf dip); assay type: in vivo; details: concentration 0.16 ppm; diamond back moth caterpillars on dipped cabbage leaves
Procedure: To produce a suitable preparation of active compound, 1 part by weight of active compound is mixed with the stated amounts of solvent and emulsifier, and the concentrate is diluted with emulsifier-containing Water to the desired concentration.
Cabbage leaves (Brassica oleracea) are treated by being dipped into the preparation of active compound of the desired concentration and are populated with caterpillars of the diamond back moth (Plutella xylostella) while the leaves are still moist.
After the desired period of time, the kill in % is determined. 100% means that all caterpillars have been killed; 0% means that none of the caterpillars have been killed.

Structure (SMILES): CC[S+]([O-])c1c(C#N)nn(-c2c(Cl)cc(C(F)(F)F)cc2Cl)c1N (centres unmarked) [Ethiprole, ethiprole]
- Kill in % after 6 d [1]: 10%
- Kill in % after 6 d [2]: 0%
